Measured values: patent US20240217951A1, “PCSK9 INHIBITORS AND METHODS OF USE THEREOF” (AstraZeneca AB, priority 2022, published 2024)

Columns and labels:
PCSK9 = PCSK9 (Homo sapiens, UniProt Q8NBP7, G670E/V474I); assay: biochemical
[1] = biological target: T1, potassium ion channel hERG (human Ether-á-go-go-Related Gene) (Homo sapiens, UniProt Q12809); assay: Assay 5 - hERG assay (SyncroPatch 384PE patch clamp, CHO cells); assay type: cell-based; conditions: geometric mean; CHO cells over-expressing hERG; read-out: Assay 5 (hERG Hu CHO IF EPh CR-Syncro) GMean IC50
T1 construct: expressed in transfected cells; host or cells: Chinese hamster ovary K1 (CHO)
Method: Assay 5—hERG Assay (Human Ether-á-go-go-Related Gene)
This assay (human Ether-á-go-go-Related Gene) measures activity of the compounds at the potassium ion channel hERG (human Ether-á-go-go-Related Gene).
Experiments were performed on the SyncroPatch 384PE high throughput patch clamp platform at room temperature and medium resistance chips with 4 patch holes per site. Chinese hamster ovary K1 (CHO) cell lines over-expressing the ion channel of choice (hERG) were used in assay-ready format and kept in liquid nitrogen or were used from live culture. Cells were either thawed and diluted in HBSS or were detached from flasks and resuspended in HBSS. HBSS comprised 140 mM NaCl, 4 mM KCl, 10 mM HEPES and 5 mM Glucose (pH7.4). The internal patch clamp solution was KF 120 mM, KCl 20 mM, HEPES 10 mM, EGTA 10 mM, and 25 PM Escin (pH 7.2). After the sealing process was complete, the external solution was exchanged for external patch clamp solution comprising NaCl 80 mM, KCl 4 mM, HEPES 10 mM, CaCl2 2 mM, MgCl2 1 mM, glucose 5 mM, and NMDG 60 mM (pH 7.4). All solutions were stored at room temperature, except Escin, which was stored at 4° C. All test compounds were dispensed in greiner-bio 384 well plates and tested in a 6 point cumulative assay (final DMSO concentration 0.33%). Only wells that passed previously agreed acceptance criteria for this platform were used in this analysis (30 MegaOhm seal resistance, Z prime >0.4 and current size >0.2 nA).

[2] = biological target: GSK3β (Glycogen synthase kinase-3 beta) (Homo sapiens, UniProt P49841); assay: Assay 6 - GSK3β assay (ThermoFisher Z-Lyte); assay type: biochemical; conditions: geometric mean; ATP Conc: 10 μM; read-out: Assay 6 (GSK3β FRET-Z-Lyte CR) GMean IC50 (μM) ATP Conc: 10
Method: Assay 6—GSK3β Assay (ThermoFisher Assay)
This assay measures the activity of the compounds at GSK3β (Glycogen synthase kinase-3 beta).
The test compounds were screened in 1% DMSO (final) in the well. For 10 point titrations, 3-fold serial dilutions are conducted from the starting concentration of 10 μM.
Bar-coded Corning, low volume NBS, black 384-well plate • 1. 2.5 μL—4× Test Compound or 100 nL 100× plus 2.4 μL kinase buffer • 2. 5 μL—2× Peptide/Kinase Mixture • 3. 2.5 μL—4×ATP Solution • 4. 30-second plate shake • 5. 60-minute Kinase Reaction incubation at room temperature • 6. 5 μL—Development Reagent Solution • 7. 30-second plate shake • 8. 60-minute Development Reaction incubation at room temperature • 9. Read on fluorescence plate reader and analyse the data
In step 2, the 2×GSK3β (GSK3 beta)/Ser/Thr (Glycogen synthase kinase-3 beta/Serine/Threonine) 09 mixture is prepared in 50 mM HEPES (4-(2-hydroxyethyl)-1-piperazineethanesulfonic acid) pH 7.5, 0.01% BRIJ-35, 10 mM MgCl2, 1 mM EGTA (egtazic acid). The final 10 μL Kinase Reaction consists of 0.22-0.92 ng GSK3β (GSK3 beta) and 2 μM Ser/Thr 09 in 50 mM HEPES pH 7.5, 0.01% BRIJ-35, 10 mM MgCl2, 1 mM EGTA.
In step 3 the ATP Solution is diluted to a 4× working concentration in Kinase Buffer (50 mM HEPES pH 7.5, 0.01% BRIJ-35, 10 mM MgCl2, 1 mM EGTA).
In Step 6 the Development Reagent is diluted 1:512 in Development Buffer (10× Novel PKC Lipid Mix: 2 mg/mL Phosphatidyl Serine, 0.2 mg/mL DAG in 20 mM HEPES, pH 7.4, 0.3% CHAPS).
SelectScreen® Kinase Profiling Service uses XLfit from IDBS. The dose response curve is curve fit to model number 205 (sigmoidal dose-response model).

T1 sequence (Q12809 whole entry): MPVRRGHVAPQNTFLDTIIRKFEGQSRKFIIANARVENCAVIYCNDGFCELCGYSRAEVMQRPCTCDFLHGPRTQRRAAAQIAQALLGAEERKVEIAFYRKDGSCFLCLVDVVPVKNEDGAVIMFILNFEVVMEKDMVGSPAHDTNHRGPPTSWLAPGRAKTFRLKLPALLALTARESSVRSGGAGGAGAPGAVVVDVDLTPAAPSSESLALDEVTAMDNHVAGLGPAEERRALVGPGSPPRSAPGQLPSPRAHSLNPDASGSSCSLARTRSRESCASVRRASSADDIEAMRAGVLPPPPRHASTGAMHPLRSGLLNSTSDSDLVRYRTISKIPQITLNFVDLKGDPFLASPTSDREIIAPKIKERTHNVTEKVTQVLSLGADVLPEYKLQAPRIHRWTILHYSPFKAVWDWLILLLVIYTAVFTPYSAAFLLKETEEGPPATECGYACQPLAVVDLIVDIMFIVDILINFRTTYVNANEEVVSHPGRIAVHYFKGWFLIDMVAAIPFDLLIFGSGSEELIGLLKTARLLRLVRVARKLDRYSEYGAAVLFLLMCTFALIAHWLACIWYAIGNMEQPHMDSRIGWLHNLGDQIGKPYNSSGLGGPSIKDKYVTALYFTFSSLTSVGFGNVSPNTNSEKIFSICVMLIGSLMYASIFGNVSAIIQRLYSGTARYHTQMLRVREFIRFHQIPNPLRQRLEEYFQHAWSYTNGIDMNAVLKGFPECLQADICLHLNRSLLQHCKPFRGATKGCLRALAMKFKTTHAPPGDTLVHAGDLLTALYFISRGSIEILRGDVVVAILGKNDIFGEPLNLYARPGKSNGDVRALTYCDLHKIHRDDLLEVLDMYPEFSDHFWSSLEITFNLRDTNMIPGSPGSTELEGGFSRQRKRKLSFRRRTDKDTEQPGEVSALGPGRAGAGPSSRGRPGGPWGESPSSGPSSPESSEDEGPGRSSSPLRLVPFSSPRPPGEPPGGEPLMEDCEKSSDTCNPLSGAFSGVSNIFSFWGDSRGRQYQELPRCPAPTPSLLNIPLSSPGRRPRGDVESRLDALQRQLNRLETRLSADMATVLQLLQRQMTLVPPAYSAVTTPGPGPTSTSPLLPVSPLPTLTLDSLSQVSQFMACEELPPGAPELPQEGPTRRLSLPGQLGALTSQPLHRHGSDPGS
Chain of GSK3β (Glycogen synthase kinase-3 beta) (P49841 whole entry): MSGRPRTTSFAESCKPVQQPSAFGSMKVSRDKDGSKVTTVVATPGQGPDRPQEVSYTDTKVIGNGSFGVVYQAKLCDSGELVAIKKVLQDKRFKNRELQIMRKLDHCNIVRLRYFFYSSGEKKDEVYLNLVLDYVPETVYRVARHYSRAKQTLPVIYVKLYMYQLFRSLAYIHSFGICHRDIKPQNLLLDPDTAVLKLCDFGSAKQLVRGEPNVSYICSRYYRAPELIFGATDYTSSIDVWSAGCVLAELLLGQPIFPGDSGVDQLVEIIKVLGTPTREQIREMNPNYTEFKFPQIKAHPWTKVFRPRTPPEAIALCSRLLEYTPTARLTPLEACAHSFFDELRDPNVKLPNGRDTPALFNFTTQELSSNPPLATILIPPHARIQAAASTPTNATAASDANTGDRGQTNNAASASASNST
Chain of PCSK9 (Q8NBP7 with tags, fused parts or gaps V474I/G670E): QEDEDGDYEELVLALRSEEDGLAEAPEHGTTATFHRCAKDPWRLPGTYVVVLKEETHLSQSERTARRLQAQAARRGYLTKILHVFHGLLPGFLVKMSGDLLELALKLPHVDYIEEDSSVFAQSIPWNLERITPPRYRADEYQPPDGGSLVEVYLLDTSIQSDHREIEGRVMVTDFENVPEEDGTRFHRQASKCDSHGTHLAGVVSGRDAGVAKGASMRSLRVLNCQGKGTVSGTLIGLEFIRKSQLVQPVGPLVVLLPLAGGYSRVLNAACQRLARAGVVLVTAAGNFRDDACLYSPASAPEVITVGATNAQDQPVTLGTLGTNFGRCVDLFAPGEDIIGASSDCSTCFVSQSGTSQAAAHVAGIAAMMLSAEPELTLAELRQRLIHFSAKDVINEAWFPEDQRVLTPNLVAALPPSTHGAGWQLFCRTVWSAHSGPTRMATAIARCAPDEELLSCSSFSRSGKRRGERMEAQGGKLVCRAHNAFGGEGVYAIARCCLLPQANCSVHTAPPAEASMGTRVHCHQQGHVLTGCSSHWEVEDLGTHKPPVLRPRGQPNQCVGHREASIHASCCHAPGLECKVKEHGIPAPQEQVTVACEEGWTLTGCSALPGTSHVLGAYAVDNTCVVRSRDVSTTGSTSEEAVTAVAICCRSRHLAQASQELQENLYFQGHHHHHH

Row | Structure (SMILES) | IC50 (PCSK9) [µM] | IC50 [1] [µM] | IC50 [2] [µM]
1 | COc1cccn(-c2ccc(N[C@H]3CC[C@H](Nc4cnc(C)cn4)C3)nc2)c1=O (single isomer, unassigned) [Example 171] | 0.602 | > 40.1 | 2.1
2 | CNC(=O)c1cnc(N[C@H]2CC[C@H](Nc3ccc(-n4cccc(OC)c4=O)cn3)C2)cn1 (stereo in doubt) [Example 150, 5-(((1S,3S)-3-((3-Methoxy-2-oxo-2H-[1,3′-bipyridin]-6′-yl)amino)cyclopentyl)amino)-N-methylpyrazine-2-carboxamide] | 8.7 | > 40.1 | > 10
3 | Cn1ccc2nc(N[C@H]3CC[C@H](Nc4ccc(-n5ccccc5=O)cn4)C3)cnc21 [Example 7, 6′-(((1S,3S)-3-((5-Methyl-5H-pyrrolo[2,3-b]pyrazin-2-yl)amino)cyclopentyl)amino)-2H-[1,3′-bipyridin]-2-one] | 3.5 | > 40 | > 10
4 | Cn1ccc2ncc(N[C@H]3CC[C@H](Nc4ccc(-n5ccccc5=O)cn4)C3)nc21 [Example 8, 6′-(((1S,3S)-3-((5-Methyl-5H-pyrrolo[2,3-b]pyrazin-3-yl)amino)cyclopentyl)amino)-2H-[1,3′-bipyridin]-2-one] | 0.257 | > 40 | > 10
5 | Cn1ncc2ncc(N[C@H]3CC[C@H](Nc4ccc(-n5ccccc5=O)cn4)C3)nc21 [Example 9, 6′-(((1S,3S)-3-((1-Methyl-1H-pyrazolo[3,4-b]pyrazin-6-yl)amino)cyclopentyl)amino)-2H-[1,3′-bipyridin]-2-one] | 0.677 | > 40 | 5.6
6 | COc1ccc(=O)n(-c2ccc(N[C@H]3CC[C@H](Nc4cnc(C)c(C)n4)C3)nc2)c1 [Example 15, 6′-(((1S,3S)-3-((5,6-Dimethylpyrazin-2-yl)amino)cyclopentyl)amino)-5-methoxy-2H-[1,3′-bipyridin]-2-one] | 0.118 | > 40 | 0.874
7 | Cc1ncc(N[C@H]2CC[C@H](Nc3ccc(N4CC(=O)N(C)C4=O)cn3)C2)nc1C [Example 16, 1-(6-(((1S,3S)-3-((5,6-Dimethylpyrazin-2-yl)amino)cyclopentyl)amino)pyridin-3-yl)-3-methylimidazolidine-2,4-dione] | 0.103 | > 40 | > 10
8 | Cc1ncc(N[C@H]2CC[C@H](Nc3ccc(-n4cc(Cl)ccc4=O)cn3)C2)nc1C [Example 17, 5-Chloro-6′-(((1S,3S)-3-((5,6-dimethylpyrazin-2-yl)amino)cyclopentyl)amino)-2H-[1,3′-bipyridin]-2-one] | 0.053 | > 40 | > 10
9 | O=c1cccnn1-c1ccc(N[C@H]2CC[C@H](Nc3cnc(Cl)cn3)C2)nc1 [Example 25, 2-(6-(((1S,3S)-3-((5-Chloropyrazin-2-yl)amino)cyclopentyl)amino)pyridin-3-yl)pyridazin-3 (2H)-one] | 0.028 | > 40 | > 10
10 | CN1C(=O)CN(c2ccc(N[C@H]3CC[C@H](Nc4cnc(Cl)cn4)C3)nc2)C1=O [Example 26, 1-(6-(((1S,3S)-3-((5-Chloropyrazin-2-yl)amino)cyclopentyl)amino)pyridin-3-yl)-3-methylimidazolidine-2,4-dione] | 0.0243 | 14.3 | > 10
11 | COc1ccc(=O)n(-c2ccc(N[C@H]3CC[C@H](Nc4cnc(Cl)cn4)C3)nc2)c1 [Example 28, 6′-(((1S,3S)-3-((5-Chloropyrazin-2-yl)amino)cyclopentyl)amino)-5-methoxy-2H-[1,3′-bipyridin]-2-one] | 0.043 | 25 | 0.16
12 | O=c1ccc(Cl)cn1-c1ccc(N[C@H]2CC[C@H](Nc3cnc(Cl)cn3)C2)nc1 [Example 29, 5-Chloro-6′-(((1S,3S)-3-((5-chloropyrazin-2-yl)amino)cyclopentyl)amino)-2H-[1,3′-bipyridin]-2-one] | 0.014 | 11.1 | > 10
13 | Cc1ccc(=O)n(-c2ccc(N[C@H]3CC[C@H](Nc4cnc(Cl)cn4)C3)nc2)c1 [Example 30, 6′-(((1S,3S)-3-((5-Chloropyrazin-2-yl)amino)cyclopentyl)amino)-5-methyl-2H-[1,3′-bipyridin]-2-one] | 0.027 | 32.2 | > 10
14 | COc1ccc(=O)n(-c2ccc(N[C@H]3CC[C@H](Nc4cnc(C)cn4)C3)nc2)c1 [Example 40, 5-Methoxy-6′-(((1S,3S)-3-((5-methylpyrazin-2-yl)amino)cyclopentyl)amino)-2H-[1,3′-bipyridin]-2-one] | 0.067 | 35.5 | 0.192
15 | Cc1cnc(N[C@H]2CC[C@H](Nc3ccc(N4C(=O)CN(C)C4=O)cn3)C2)cn1 [Example 41, 1-Methyl-3-(6-(((1S,3S)-3-((5-methylpyrazin-2-yl)amino)cyclopentyl)amino)pyridin-3-yl)imidazolidine-2,4-dione] | 0.057 | > 40 | > 10
16 | Cc1ncc(N[C@H]2CC[C@H](Nc3ccc(-n4cc(C#N)ccc4=O)cn3)C2)nc1C [Example 48, 6′-(((1S,3S)-3-((5,6-Dimethylpyrazin-2-yl)amino)cyclopentyl)amino)-2-oxo-2H-[1,3′-bipyridine]-5-carbonitrile] | 0.113 | 18.4 | > 10
17 | Cc1cnc(N[C@H]2CC[C@H](Nc3ccc(-n4cc(C#N)ccc4=O)cn3)C2)cn1 [Example 49, 6′-(((1S,3S)-3-((5-Methylpyrazin-2-yl)amino)cyclopentyl)amino)-2-oxo-2H-[1,3′-bipyridine]-5-carbonitrile] | 0.058 | > 40 | > 10
18 | O=C1CC[C@H](CO)N1c1ccc(N[C@H]2CC[C@H](Nc3cnc(OC(F)F)cn3)C2)nc1 [Example 77, (R)-1-(6-(((1S,3S)-3-((5-(Difluoromethoxy)pyrazin-2-yl)amino)cyclopentyl)amino)pyridin-3-yl)-5-(hydroxymethyl)pyrrolidin-2-one] | 1.53 | > 40 | > 10
19 | O=C1[C@@H]2OCC[C@@H]2CCN1c1ccc(N[C@H]2CC[C@H](Nc3cnc(OC(F)F)cn3)C2)nc1 [Example 78, (3aS,7aR)-6-(6-(((1S,3S)-3-((5-(Difluoromethoxy)pyrazin-2-yl)amino)cyclopentyl)amino)pyridin-3-yl)hexahydrofuro[2,3-c]pyridin-7(4H)-one] | 1.63 | > 40 | > 10
20 | COc1ccc(=O)n(-c2ccc(N[C@H]3CC[C@H](Nc4cnc(C5CC5)cn4)C3)nc2)c1 [Example 107, 6′-(((1S,3S)-3-((5-Cyclopropylpyrazin-2-yl)amino)cyclopentyl)amino)-5-methoxy-2H-[1,3′-bipyridin]-2-one] | 0.105 |  | 0.16
21 | Cc1cnc(N[C@H]2CC[C@H](Nc3ccc(-n4cccc(-c5cnn(C)c5)c4=O)cn3)C2)cn1 [Example 203, 3-(1-Methyl-1H-pyrazol-4-yl)-6′-(((1S,3S)-3-((5-methylpyrazin-2-yl)amino)cyclopentyl)amino)-2H-[1,3′-bipyridin]-2-one] |  | > 40.1 | > 10
